Results as given in the supplement of paper PMC13380429.

Columns and labels:
Conditions in all cases: 72 h
[1] = tested on: Caco-2; test: cell viability relative to DMSO; higher = less toxic
[2] = tested on: Calu-3; test: as above
[3] = tested on: HepG2; test: as above
[4] = tested on: U2OS; test: as above
[5] = tested on: Vero E6; test: as above
[6] = tested on: Caco-2; test: relative viability EC50 (midpoint between 100% and the lowest measured viability); higher = less toxic
[7] = tested on: Calu-3; test: as above
[8] = tested on: HepG2; test: as above
[9] = tested on: U2OS; test: as above
[10] = tested on: Vero E6; test: as above
[11] = tested on: Caco-2; test: drug sensitivity score (DSS) for viability; higher = more toxic; extreme values may be limits of the assay
[12] = tested on: Calu-3; test: as above
[13] = tested on: HepG2; test: as above
[14] = tested on: U2OS; test: as above
[15] = tested on: Vero E6; test: as above

`N[C@@H](Cc1ccc(Cl)cc1)C(=O)O` (racemic) [fenclonine-(+/-)] showed a cell viability ([1]; 1 nM) of 94%, a cell viability ([1]; 10 nM) of 102% and a cell viability ([1]; 100 nM) of 97.9%. For the same compound, the cell viability ([1]; 1000 nM) was 97.5%, the cell viability ([1]; 10000 nM) was 93.2% and the cell viability ([2]; 1 nM) was 98.1%. The cell viability ([2]; 10 nM) was 101%, the cell viability ([2]; 100 nM) was 97.7% and the cell viability ([2]; 1000 nM) was 96.4%. It also gave a cell viability ([2]; 10000 nM) of 97.1%, a cell viability ([3]; 1 nM) of 103% and a cell viability ([3]; 10 nM) of 107%. It also gave a cell viability ([3]; 100 nM) of 101%, a cell viability ([3]; 1000 nM) of 93.7% and a cell viability ([3]; 10000 nM) of 100%. For the same compound, the cell viability ([4]; 1 nM) was 93.6%, the cell viability ([4]; 10 nM) was 101% and the cell viability ([4]; 100 nM) was 96.4%. It also gave a cell viability ([4]; 1000 nM) of 102%, a cell viability ([4]; 10000 nM) of 97.2% and a cell viability ([5]; 1 nM) of 110%. For the same compound, the cell viability ([5]; 10 nM) was 106%, the cell viability ([5]; 100 nM) was 105% and the cell viability ([5]; 1000 nM) was 98.6%. For the same compound, the cell viability ([5]; 10000 nM) was 102%, the “relative viability EC50” value [6] was over 10 µM and the “relative viability EC50” value [7] was over 10 µM. The “relative viability EC50” value [8] was over 10 µM, the “relative viability EC50” value [9] was over 10 µM and the “relative viability EC50” value [10] was over 10 µM. The drug sensitivity score [11] was 0, the drug sensitivity score [12] was 0 and the drug sensitivity score [13] was 0. It also gave a drug sensitivity score [14] of 0 and a drug sensitivity score [15] of 0.

Compound `O=c1[nH]c2ccccc2n1CCCN1CCC(n2c(=O)[nH]c3cc(Cl)ccc32)CC1` [domperidone] has a cell viability ([1]; 1 nM) of 100%, a cell viability ([1]; 10 nM) of 96.1% and a cell viability ([1]; 100 nM) of 96.7%. For the same compound, the cell viability ([1]; 1000 nM) was 92.1%, the cell viability ([1]; 10000 nM) was 94.3% and the cell viability ([2]; 1 nM) was 102%. The cell viability ([2]; 10 nM) was 94.6%, the cell viability ([2]; 100 nM) was 105% and the cell viability ([2]; 1000 nM) was 106%. The cell viability ([2]; 10000 nM) was 101%, the cell viability ([3]; 1 nM) was 94.6% and the cell viability ([3]; 10 nM) was 96.4%. For the same compound, the cell viability ([3]; 100 nM) was 92.3%, the cell viability ([3]; 1000 nM) was 104% and the cell viability ([3]; 10000 nM) was 95.7%. It also gave a cell viability ([4]; 1 nM) of 103%, a cell viability ([4]; 10 nM) of 90.7% and a cell viability ([4]; 100 nM) of 97.6%. It also gave a cell viability ([4]; 1000 nM) of 95.6%, a cell viability ([4]; 10000 nM) of 94.2% and a cell viability ([5]; 1 nM) of 90%. For the same compound, the cell viability ([5]; 10 nM) was 93.8%, the cell viability ([5]; 100 nM) was 95.8% and the cell viability ([5]; 1000 nM) was 96.6%. For the same compound, the cell viability ([5]; 10000 nM) was 89%, the “relative viability EC50” value [6] was over 10 µM and the “relative viability EC50” value [7] was over 10 µM. For the same compound, the “relative viability EC50” value [8] was over 10 µM, the “relative viability EC50” value [9] was over 10 µM and the “relative viability EC50” value [10] was over 10 µM. For the same compound, the drug sensitivity score [11] was 0, the drug sensitivity score [12] was 0 and the drug sensitivity score [13] was 0. The drug sensitivity score [14] was 0 and the drug sensitivity score [15] was 0.

`CC(C)C(=O)Nc1ncc(-c2cc(C(F)F)nn2-c2c(Cl)cccc2Cl)s1` [LIMKi-3] was tested, and the cell viability ([1]; 1 nM) was 91.4%, the cell viability ([1]; 10 nM) was 105% and the cell viability ([1]; 100 nM) was 92.8%. For the same compound, the cell viability ([1]; 1000 nM) was 94.6%, the cell viability ([1]; 10000 nM) was 97.3% and the cell viability ([2]; 1 nM) was 88.4%. It also gave a cell viability ([2]; 10 nM) of 92.7%, a cell viability ([2]; 100 nM) of 98.5% and a cell viability ([2]; 1000 nM) of 118%. The cell viability ([2]; 10000 nM) was 115%, the cell viability ([3]; 1 nM) was 110% and the cell viability ([3]; 10 nM) was 98%. The cell viability ([3]; 100 nM) was 104%, the cell viability ([3]; 1000 nM) was 106% and the cell viability ([3]; 10000 nM) was 110%. For the same compound, the cell viability ([4]; 1 nM) was 98.1%, the cell viability ([4]; 10 nM) was 106% and the cell viability ([4]; 100 nM) was 96.3%. The cell viability ([4]; 1000 nM) was 100%, the cell viability ([4]; 10000 nM) was 88.9% and the cell viability ([5]; 1 nM) was 106%. The cell viability ([5]; 10 nM) was 101%, the cell viability ([5]; 100 nM) was 101% and the cell viability ([5]; 1000 nM) was 92.2%. The cell viability ([5]; 10000 nM) was 96%, the “relative viability EC50” value [6] was over 10 µM and the “relative viability EC50” value [7] was over 10 µM. For the same compound, the “relative viability EC50” value [8] was over 10 µM, the “relative viability EC50” value [9] was over 10 µM and the “relative viability EC50” value [10] was over 10 µM. It also gave a drug sensitivity score [11] of 0, a drug sensitivity score [12] of 0 and a drug sensitivity score [13] of 0. It also gave a drug sensitivity score [14] of 0 and a drug sensitivity score [15] of 0.

`CCCCCCCCCCCCC/C=C/[C@@H](O)[C@@H](N)CO[P@](=O)(O)OCC[N+](C)(C)C` [sphingosylphosphorylcholine] gave a cell viability ([1]; 1 nM) of 91%, a cell viability ([1]; 10 nM) of 90.4% and a cell viability ([1]; 100 nM) of 102%. The cell viability ([1]; 1000 nM) was 101%, the cell viability ([1]; 10000 nM) was 102% and the cell viability ([2]; 1 nM) was 94.2%. The cell viability ([2]; 10 nM) was 106%, the cell viability ([2]; 100 nM) was 87.7% and the cell viability ([2]; 1000 nM) was 97.5%. It also gave a cell viability ([2]; 10000 nM) of 107%, a cell viability ([3]; 1 nM) of 86% and a cell viability ([3]; 10 nM) of 98.8%. It also gave a cell viability ([3]; 100 nM) of 88.5%, a cell viability ([3]; 1000 nM) of 102% and a cell viability ([3]; 10000 nM) of 104%. It also gave a cell viability ([4]; 1 nM) of 94%, a cell viability ([4]; 10 nM) of 97% and a cell viability ([4]; 100 nM) of 101%. It also gave a cell viability ([4]; 1000 nM) of 95.7%, a cell viability ([4]; 10000 nM) of 100% and a cell viability ([5]; 1 nM) of 99.4%. For the same compound, the cell viability ([5]; 10 nM) was 103%, the cell viability ([5]; 100 nM) was 94.1% and the cell viability ([5]; 1000 nM) was 105%. For the same compound, the cell viability ([5]; 10000 nM) was 109%, the “relative viability EC50” value [6] was over 10 µM and the “relative viability EC50” value [7] was over 10 µM. For the same compound, the “relative viability EC50” value [8] was over 10 µM, the “relative viability EC50” value [9] was over 10 µM and the “relative viability EC50” value [10] was over 10 µM. It also gave a drug sensitivity score [11] of 0, a drug sensitivity score [12] of 0 and a drug sensitivity score [13] of 0. It also gave a drug sensitivity score [14] of 0 and a drug sensitivity score [15] of 0.

For `CC[C@H](C)[C@H](N)C1=N[C@H](C(=O)N[C@@H](CC(C)C)C(=O)N[C@H](CCC(=O)O)C(=O)N[C@H](C(=O)N[C@H]2CCCCNC(=O)[C@H](CC(N)=O)NC(=O)[C@@H](CC(=O)O)NC(=O)[C@H](Cc3cnc[nH]3)NC(=O)[C@@H](Cc3ccccc3)NC(=O)[C@H]([C@@H](C)CC)NC(=O)[C@@H](CCCN)NC2=O)[C@@H](C)CC)CS1` [bacitracin], the cell viability ([1]; 1 nM) was 104%, the cell viability ([1]; 10 nM) was 104% and the cell viability ([1]; 100 nM) was 90.4%. The cell viability ([1]; 1000 nM) was 106%, the cell viability ([1]; 10000 nM) was 119% and the cell viability ([2]; 1 nM) was 103%. It also gave a cell viability ([2]; 10 nM) of 96.4%, a cell viability ([2]; 100 nM) of 97.7% and a cell viability ([2]; 1000 nM) of 99.5%. The cell viability ([2]; 10000 nM) was 97.8%, the cell viability ([3]; 1 nM) was 100% and the cell viability ([3]; 10 nM) was 99%. It also gave a cell viability ([3]; 100 nM) of 99.4%, a cell viability ([3]; 1000 nM) of 103% and a cell viability ([3]; 10000 nM) of 104%. It also gave a cell viability ([4]; 1 nM) of 95.8%, a cell viability ([4]; 10 nM) of 96.3% and a cell viability ([4]; 100 nM) of 98.9%. The cell viability ([4]; 1000 nM) was 98.9%, the cell viability ([4]; 10000 nM) was 102% and the cell viability ([5]; 1 nM) was 102%. The cell viability ([5]; 10 nM) was 96.2%, the cell viability ([5]; 100 nM) was 103% and the cell viability ([5]; 1000 nM) was 114%. For the same compound, the cell viability ([5]; 10000 nM) was 110%, the “relative viability EC50” value [6] was over 10 µM and the “relative viability EC50” value [7] was over 10 µM. For the same compound, the “relative viability EC50” value [8] was over 10 µM, the “relative viability EC50” value [9] was over 10 µM and the “relative viability EC50” value [10] was over 10 µM. For the same compound, the drug sensitivity score [11] was 0, the drug sensitivity score [12] was 0 and the drug sensitivity score [13] was 0. The drug sensitivity score [14] was 0 and the drug sensitivity score [15] was 0.

`O=C(O[C@H]1C[C@H]2CC[C@@H](C1)[N+]21CCCC1)C(O)(c1ccccc1)c1ccccc1` [trospium] was tested, and the cell viability ([1]; 1 nM) was 92.8%, the cell viability ([1]; 10 nM) was 97.1% and the cell viability ([1]; 100 nM) was 94.7%. The cell viability ([1]; 1000 nM) was 98.3%, the cell viability ([1]; 10000 nM) was 99.9% and the cell viability ([2]; 1 nM) was 101%. For the same compound, the cell viability ([2]; 10 nM) was 101%, the cell viability ([2]; 100 nM) was 97.2% and the cell viability ([2]; 1000 nM) was 98.2%. The cell viability ([2]; 10000 nM) was 94.3%, the cell viability ([3]; 1 nM) was 98.3% and the cell viability ([3]; 10 nM) was 93.8%. The cell viability ([3]; 100 nM) was 107%, the cell viability ([3]; 1000 nM) was 94.8% and the cell viability ([3]; 10000 nM) was 108%. It also gave a cell viability ([4]; 1 nM) of 95.7%, a cell viability ([4]; 10 nM) of 97.5% and a cell viability ([4]; 100 nM) of 101%. For the same compound, the cell viability ([4]; 1000 nM) was 99.1%, the cell viability ([4]; 10000 nM) was 88.9% and the cell viability ([5]; 1 nM) was 95.6%. It also gave a cell viability ([5]; 10 nM) of 99.5%, a cell viability ([5]; 100 nM) of 93% and a cell viability ([5]; 1000 nM) of 95.3%. For the same compound, the cell viability ([5]; 10000 nM) was 102%, the “relative viability EC50” value [6] was over 10 µM and the “relative viability EC50” value [7] was over 10 µM. The “relative viability EC50” value [8] was over 10 µM, the “relative viability EC50” value [9] was over 10 µM and the “relative viability EC50” value [10] was over 10 µM. The drug sensitivity score [11] was 0, the drug sensitivity score [12] was 0 and the drug sensitivity score [13] was 0. The drug sensitivity score [14] was 0 and the drug sensitivity score [15] was 0.
